± gives the standard deviation of the averaged measurements.
Assays:
[1] = compound: COc1cc2ncnc(Nc3ccc(F)c(Cl)c3)c2cc1OCCCN1CCOCC1 [GEFITINIB]; test: surviving fraction relative to DMSO-only wells; higher = less growth inhibition; settings: exposure time: 5 days
Summary of the method: (§1)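 Surviving fraction was calculated by normalising CellTiter-Glo luminescence to the median of DMSO-only wells. Tumour cell lines in log phase were seeded in 384-well plates at 250–500 cells per well, and 24 hours later were exposed continuously for five days to inhibitors at 0.5, 1, 5, 10, 50, 100, 500 and 1000 nM.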

[2] = compound: CC(=O)c1c(C)c2cnc(Nc3ccc(N4CCNCC4)cn3)nc2n(C2CCCC2)c1=O; test: as above; settings: exposure time: 5 days
Summary of the method: as §1

Row | Test System | surviving fraction ([1]; 0.5 nM) | surviving fraction ([1]; 1 nM) | surviving fraction ([1]; 5 nM) | surviving fraction ([1]; 10 nM) | surviving fraction ([1]; 50 nM) | surviving fraction ([1]; 100 nM) | surviving fraction ([1]; 500 nM) | surviving fraction ([1]; 1000 nM) | surviving fraction ([2]; 0.5 nM) | surviving fraction ([2]; 1 nM) | surviving fraction ([2]; 5 nM) | surviving fraction ([2]; 10 nM) | surviving fraction ([2]; 50 nM) | surviving fraction ([2]; 100 nM) | surviving fraction ([2]; 500 nM) | surviving fraction ([2]; 1000 nM)
1 | H23 LUNG | 1.01 ± 0.07 | 0.997 ± 0.032 | 0.989 ± 0.014 | 0.918 ± 0.03 | 0.603 ± 0.075 | 0.458 ± 0.053 | 0.356 ± 0.05 | 0.346 ± 0.0093 | 1.01 ± 0.035 | 1 ± 0.029 | 1.04 ± 0.038 | 0.928 ± 0.065 | 1.132 ± 0.01 | 1.12 ± 0.068 | 1.15 ± 0.074 | 1.13 ± 0.033
2 | SUM44 BREAST | 1.27 ± 0.43 | – | 1.2 ± 0.32 | 1.19 ± 0.23 | 1.45 ± 0.42 | 1.33 ± 0.32 | 1.33 ± 0.49 | 1.14 ± 0.22 | 0.984 ± 0.044 | 1.01 ± 0.028 | 1.03 ± 0.062 | 0.956 ± 0.044 | 1.08 ± 0.1 | 1.05 ± 0.043 | 1.08 ± 0.068 | 1.086 ± 0.0082
3 | VCAP PROSTATE | 1.13 ± 0.089 | 1.11 ± 0.14 | 1.13 ± 0.12 | 1.15 ± 0.14 | 1.19 ± 0.083 | 1.08 ± 0.056 | 1.21 ± 0.16 | 1.07 ± 0.076 | 1.08 ± 0.018 | 1.08 ± 0.025 | 1.14 ± 0.076 | 1.17 ± 0.053 | 1.1 ± 0.13 | 1.18 ± 0.025 | 0.829 ± 0.11 | 0.773 ± 0.0044
4 | CME SYNOVIAL | 1.32 ± 0.14 | 1.3 ± 0.036 | 1.4 ± 0.12 | 1.44 ± 0.17 | 1.39 ± 0.12 | 1.41 ± 0.17 | 1.28 ± 0.096 | 1.18 ± 0.047 | 1.23 ± 0.18 | 1.27 ± 0.14 | 1.3 ± 0.18 | 1.18 ± 0.11 | 1.37 ± 0.062 | 1.23 ± 0.099 | 1.22 ± 0.066 | 1.09 ± 0.14
5 | HCT15 LARGE INTESTINE | 1.05 ± 0.033 | 1.04 ± 0.017 | 0.982 ± 0.025 | 1.04 ± 0.054 | 1.07 ± 0.04 | 1.046 ± 0.0061 | 1.04 ± 0.039 | 1.07 ± 0.052 | 1.09 ± 0.044 | 1.05 ± 0.028 | 1.06 ± 0.025 | 1.03 ± 0.052 | 1.14 ± 0.055 | 1.1 ± 0.038 | 1.12 ± 0.058 | 1.11 ± 0.035
6 | S68 BREAST | 0.936 ± 0.095 | 0.744 ± 0.17 | 1.11 ± 0.34 | 1.09 ± 0.069 | 1.11 ± 0.23 | 0.762 ± 0.093 | 0.728 ± 0.1 | 0.687 ± 0.22 | 0.75 ± 0.08 | 0.809 ± 0.025 | 1.13 ± 0.062 | 1.18 ± 0.033 | 1.01 ± 0.091 | 1.19 ± 0.2 | 0.744 ± 0.043 | 0.79 ± 0.29
7 | SG43 HEADNECK | 1.36 ± 0.4 | 1.21 ± 0.45 | 0.814 ± 0.26 | 0.825 ± 0.2 | 0.649 ± 0.17 | 0.406 ± 0.034 | 0.264 ± 0.033 | 0.21 ± 0.043 | 0.92 ± 0.039 | 1 ± 0.12 | 0.862 ± 0.16 | 0.855 ± 0.059 | 0.73 ± 0.11 | 0.745 ± 0.12 | 1.02 ± 0.12 | 0.766 ± 0.28
8 | BT20 BREAST | 1.14 ± 0.02 | 1.19 ± 0.063 | 1.13 ± 0.11 | 1.15 ± 0.043 | 1.06 ± 0.011 | 1.06 ± 0.013 | 1.05 ± 0.04 | 0.984 ± 0.085 | 1.12 ± 0.19 | 1.06 ± 0.3 | 0.955 ± 0.23 | 0.982 ± 0.1 | 0.981 ± 0.32 | 0.924 ± 0.24 | 0.916 ± 0.22 | 0.86 ± 0.21
9 | T47D BREAST | 1.08 ± 0.027 | 1.05 ± 0.064 | 1.07 ± 0.061 | 1.03 ± 0.029 | 1.13 ± 0.015 | 1.083 ± 0.01 | 1.065 ± 0.0084 | 1.06 ± 0.021 | 1.05 ± 0.019 | 1.039 ± 0.0056 | 1.09 ± 0.022 | 1.06 ± 0.022 | 1.17 ± 0.014 | 1.08 ± 0.045 | 1.16 ± 0.042 | 1.11 ± 0.028
10 | VP229 BREAST | 1.14 ± 0.062 | 1.08 ± 0.09 | 1.07 ± 0.033 | 0.974 ± 0.098 | 0.875 ± 0.084 | 0.681 ± 0.042 | 0.347 ± 0.028 | 0.281 ± 0.008 | 1.1 ± 0.1 | 1.05 ± 0.04 | 1.06 ± 0.034 | 0.852 ± 0.093 | 0.995 ± 0.055 | 0.978 ± 0.15 | 0.932 ± 0.037 | 0.776 ± 0.075
11 | SG31 HEADNECK | 1.14 ± 0.13 | 1.09 ± 0.18 | 1.1 ± 0.28 | 1.11 ± 0.24 | 0.855 ± 0.24 | 0.845 ± 0.23 | 0.732 ± 0.2 | 0.54 ± 0.11 | 1.22 ± 0.17 | 1.08 ± 0.19 | 0.988 ± 0.21 | 0.911 ± 0.13 | 0.976 ± 0.071 | 0.977 ± 0.24 | 1.08 ± 0.13 | 1.14 ± 0.19
12 | HS57T BREAST | 0.973 ± 0.033 | 0.994 ± 0.088 | 1.01 ± 0.024 | 1.02 ± 0.05 | 1.05 ± 0.059 | 1.02 ± 0.061 | 1.01 ± 0.065 | 0.9383 ± 0.0032 | 1.02 ± 0.025 | 1.08 ± 0.097 | 1.11 ± 0.052 | 1.1 ± 0.031 | 1.16 ± 0.043 | 1.11 ± 0.032 | 0.954 ± 0.055 | 0.96 ± 0.039
13 | G292 BONE | 0.976 ± 0.023 | 1.03 ± 0.045 | 1.04 ± 0.035 | 1.059 ± 0.0083 | 1.03 ± 0.052 | 1.04 ± 0.04 | 0.954 ± 0.038 | 0.9402 ± 0.0094 | 1 ± 0.068 | 0.976 ± 0.033 | 1 ± 0.024 | 1.02 ± 0.045 | 0.951 ± 0.062 | 0.929 ± 0.058 | 0.678 ± 0.025 | 0.678 ± 0.036
14 | CAL51 BREAST | 1.01 ± 0.089 | 0.995 ± 0.07 | 1.01 ± 0.015 | 1 ± 0.036 | 1.08 ± 0.035 | 1.02 ± 0.016 | 1.13 ± 0.015 | 1.07 ± 0.066 | 0.964 ± 0.089 | 0.962 ± 0.055 | 0.982 ± 0.037 | 0.94 ± 0.06 | 0.997 ± 0.029 | 1.07 ± 0.012 | 0.968 ± 0.052 | 0.908 ± 0.0048
15 | 93VU HEADNECK | – | 1.07 ± 0.075 | 1.08 ± 0.027 | 1.04 ± 0.055 | 0.878 ± 0.044 | 0.751 ± 0.034 | 0.449 ± 0.044 | 0.383 ± 0.062 | 1.09 ± 0.1 | 1.04 ± 0.09 | 1.12 ± 0.049 | 1.07 ± 0.025 | 1.18 ± 0.12 | 1.14 ± 0.14 | 1.17 ± 0.038 | 1.19 ± 0.045
16 | CAL120 BREAST | 0.964 ± 0.046 | 0.965 ± 0.031 | 0.968 ± 0.025 | 0.956 ± 0.039 | 1.016 ± 0.0095 | 0.985 ± 0.031 | 0.995 ± 0.035 | 0.93 ± 0.042 | 0.953 ± 0.017 | 0.965 ± 0.026 | 0.9478 ± 0.0082 | 0.9508 ± 0.0056 | 1.01 ± 0.014 | 0.974 ± 0.0098 | 0.9508 ± 0.0081 | 0.935 ± 0.013
17 | LM7 BONE | 0.988 ± 0.039 | 1.01 ± 0.034 | 1.1 ± 0.07 | 1.1 ± 0.036 | 1.12 ± 0.013 | 1.12 ± 0.1 | 0.963 ± 0.054 | 0.825 ± 0.016 | 0.997 ± 0.1 | 0.98 ± 0.14 | 1.108 ± 0.011 | 1.05 ± 0.032 | 1.06 ± 0.093 | 1.09 ± 0.046 | 0.999 ± 0.12 | 1.02 ± 0.0049
18 | SAOS2 BONE | 1.11 ± 0.021 | 1.04 ± 0.065 | 1.21 ± 0.035 | 1.09 ± 0.05 | 1.12 ± 0.061 | 1.13 ± 0.06 | 1.01 ± 0.038 | 0.907 ± 0.08 | 1.07 ± 0.062 | 1.06 ± 0.034 | 1.13 ± 0.051 | 1.09 ± 0.037 | 1.1287 ± 0.00058 | 1.138 ± 0.0069 | 1.13 ± 0.065 | 1.07 ± 0.013
19 | MDAMB231 BREAST | 0.989 ± 0.026 | 0.987 ± 0.026 | 1.02 ± 0.02 | 1.03 ± 0.024 | 1.06 ± 0.027 | 1.06 ± 0.037 | 1.06 ± 0.018 | 1.04 ± 0.037 | 0.994 ± 0.01 | 1.03 ± 0.032 | 1.03 ± 0.014 | 1.01 ± 0.031 | 1.045 ± 0.0069 | 1.02 ± 0.021 | 0.905 ± 0.013 | 0.888 ± 0.023
20 | ZR751 BREAST | 1.22 ± 0.054 | 1 ± 0.1 | 1.13 ± 0.067 | 0.983 ± 0.046 | 0.901 ± 0.071 | 0.994 ± 0.035 | 0.734 ± 0.034 | 0.802 ± 0.12 | 1.07 ± 0.19 | 1.07 ± 0.057 | 0.923 ± 0.2 | 0.953 ± 0.15 | 1.13 ± 0.059 | 1.04 ± 0.11 | 1.23 ± 0.12 | 1.01 ± 0.054
21 | ASKA SYNOVIAL | 1.13 ± 0.052 | 1.11 ± 0.06 | 1.05 ± 0.085 | 1.16 ± 0.051 | 1.19 ± 0.077 | 1.16 ± 0.073 | 1.08 ± 0.053 | 1.1 ± 0.058 | 1.04 ± 0.06 | 0.971 ± 0.057 | 1.06 ± 0.094 | 1.02 ± 0.071 | 1.07 ± 0.1 | 1.08 ± 0.074 | 0.82 ± 0.034 | 0.73 ± 0.023

Reference: the supplement of paper PMC6045584
